Common to all, as to type: cell-based
Test [1] concerns the target T1, human NTCP (Homo sapiens, UniProt Q14973).
T1 sequence (Q14973 1-349): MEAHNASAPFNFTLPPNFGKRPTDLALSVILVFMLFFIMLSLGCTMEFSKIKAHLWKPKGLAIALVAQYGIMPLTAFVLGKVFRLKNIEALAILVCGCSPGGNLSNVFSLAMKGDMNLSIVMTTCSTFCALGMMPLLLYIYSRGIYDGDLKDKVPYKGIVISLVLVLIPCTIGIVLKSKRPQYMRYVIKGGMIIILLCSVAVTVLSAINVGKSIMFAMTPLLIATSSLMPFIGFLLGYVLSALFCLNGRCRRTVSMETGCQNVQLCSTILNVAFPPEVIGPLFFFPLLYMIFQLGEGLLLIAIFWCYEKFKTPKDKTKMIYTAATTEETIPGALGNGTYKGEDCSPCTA
The test is described as follows: Inhibition of tauro-nor-THCA-24-DBD uptake in NTCP-transfected CHO cells. The conditions noted are these: for Uptake of tauro-nor-THCA-24-DBD (% of control): compound at equimolar concentration with 3 µM tauro-nor-THCA-24-DBD, triplicate; for Ki / concentration-dependent inhibition of tauro-nor-THCA-24-DBD uptake: 3 µM tauro-nor-THCA-24-DBD; for Ki: read-out: Ki; for concentration-dependent inhibition of tauro-nor-THCA-24-DBD uptake: multiple inhibitor concentrations. The arrangement: expressed in transfected cells; host or cells: CHO cells, geneticin selection, expression induced with sodium butyrate. As for the experimental part: (§1) The cells were placed in an incubator at 37 °C and 5% CO2. The culture medium consisted of DMEM with 1 g·L^-1 glucose and 25 mM HEPES, supplemented with 10% FBS, 0.05 mg·mL^-1 L-proline, 100 IU·mL^-1 penicillin, 100 […], 2 mM glutamine, 0.11 mg·mL^-1 sodium pyruvate. To ensure selection of NTCP-transfected cells, 0.5 mg·mL^-1 geneticin was added to the medium of the transfected cells. Cells were seeded in black 96-well plates with transparent bottom at a density of 6000 cells·well^-1 and 4000 cells·well^-1 for wild-type and transfected cells, respectively. The medium was replaced every other day and 5 mM sodium butyrate was added to induce protein expression at least 36 h before the start of the experiments. Experiments were performed on day 4 or 5 after seeding when confluence was reached.
Furthermore, to analyse the uptake experiments in NTCP-transfected CHO cells, cells were rinsed twice with 200 µL-well^-1 uptake buffer (HBSS containing 10 mM HEPES, pH 7.4) at 37 °C and subsequently preincubated with 100 µL uptake buffer for 15 minutes. For inhibition experiments, compounds were added at double concentration during preincubation. Uptake was initiated by adding 100 µL double-concentrated tauro-nor-THCA-24-DBD solution in uptake buffer. Cells were incubated for 15 minutes. The reaction was quenched by aspirating the incubation mixture and washing four times with ice cold uptake buffer. The cells were lysed with 100 µL 0.5% Triton X-100 in PBS and placed on a plate shaker (300 rpm) at room temperature for 30 minutes. Uptake of tauro-nor-THCA-24-DBD was determined using fluorescence spectroscopy (excitation 440 nm, emission 580 nm) using a Tecan Infinite 200 plate reader (Tecan Benelux, Mechelen, Belgium). Protein content of each well was determined with the BCA Protein assay (Thermo Fisher Scientific, Waltham, MA) performed according to the manufacturer's protocol. Uptake kinetics of tauro-nor-THCA-24-DBD were determined by incubating eight different concentrations in the absence of any compound. […] All conditions were tested in triplicate.
Uptake of tauro-nor-THCA-24-DBD in presence of compounds was expressed to uptake of the control for each batch, i.e. when no compound was present.
For determination of the IC50, the uptake in presence of various concentrations of inhibitor was fitted to the sigmoid Emax model: E = Emax −(Emax−E0) × (([I])^n)/(([I])^n + IC50^n) [formula] with E the uptake of tauro-nor-THCA-24-DBD, E0 the uptake at maximal inhibition by the compound, Emax the uptake at minimal inhibition, IC50 the concentration of the inhibitor at half maximal inhibition, n the Hill coefficient and [I] the concentration of the inhibitor. All curves were fitted with nonlinear least squares regression using R version 3.5.1.
Assuming competitive inhibition, the Cheng-Prusoff equation was used to determine the Ki value: Ki = (IC50)/(1 + ([S])/(Km)) [formula] where Ki is the binding affinity of the inhibitor, IC50 the concentration of the inhibitor at half maximal inhibition, [S] the substrate concentration, and Km the Michaelis-Menten constant of the substrate.

The target of test [2] is T1, human NTCP. The test is described as above. The arrangement: expressed in transfected cells; host or cells: CHO cells, geneticin-selected, expression induced with sodium butyrate. As for the experimental part:
The cells were placed in an incubator at 37 °C and 5% CO2. The culture medium consisted of DMEM with 1 g·L^-1 glucose and 25 mM HEPES, supplemented with 10% FBS, 0.05 mg·mL^-1 L-proline, 100 IU·mL^-1 penicillin, 100 […], 2 mM glutamine, 0.11 mg·mL^-1 sodium pyruvate. To ensure selection of NTCP-transfected cells, 0.5 mg·mL^-1 geneticin was added to the medium of the transfected cells. Cells were seeded in black 96-well plates with transparent bottom at a density of 6000 cells·well^-1 and 4000 cells·well^-1 for wild-type and transfected cells, respectively. […]
(§2) Furthermore, to analyse the uptake experiments in NTCP-transfected CHO cells, cells were rinsed twice with 200 µL-well^-1 uptake buffer (HBSS containing 10 mM HEPES, pH 7.4) at 37 °C and subsequently preincubated with 100 µL uptake buffer for 15 minutes. […] Uptake of tauro-nor-THCA-24-DBD was determined using fluorescence spectroscopy (excitation 440 nm, emission 580 nm) using a Tecan Infinite 200 plate reader (Tecan Benelux, Mechelen, Belgium). Protein content of each well was determined with the BCA Protein assay (Thermo Fisher Scientific, Waltham, MA) performed according to the manufacturer's protocol. Uptake kinetics of tauro-nor-THCA-24-DBD were determined by incubating eight different concentrations in the absence of any compound. […]

The target of test [3] is T1, human NTCP. In words: Uptake kinetics of tauro-nor-THCA-24-DBD in NTCP-transfected CHO cells. More on the design: expressed in transfected cells; host or cells: CHO cells, geneticin selection, expression induced with sodium butyrate. As for the experimental part: as §1, with “To culture of NTCP-transfected CHO cells, wild-type and human NTCP-transfected CHO cells were cultured from passage 20 to 45 in T-75 flasks (Greiner-Bio-One, Wemmel, Belgium) as prescribed previously (Treiber et al., 2007). The cells” for “The cells”
as §2, with “minutes. For inhibition experiments, compounds were added at double concentration during preincubation.” for “minutes.”, “compound. The inhibitory potential of all compounds of the Spectrum Collection (n = 2000) and the ChemDiv library (n = 556) were determined at equimolar concentrations with 3 µM tauro-nor-THCA-24-DBD.” for “compound.”

[4] abbreviates: Cheng-Prusoff from IC50, screening hits.
Setting [5] is: concentration dependent uptake, 15 minutes, NTCP-transfected CHO cells, Michaelis-Menten fit.

16 molecules from patent EP4159213A1, “PHARMACEUTICAL COMPOSITIONS FOR USE IN PREVENTION AND/OR TREATMENT AND/OR CURE OF HEPATITIS B VIRUS” (Katholieke Universiteit Leuven, priority 2021, dated 2023) can be followed below.

Where two headings read alike, the source gives them in different places.

In the case of `COc1c(CC=C(C)C)c2c(c3oc(=O)c(-c4ccc(O)cc4)c(O)c13)C=CC(C)(C)O2` [Scandenin], in test [1], the “Uptake of tauro-nor-THCA-24-DBD (% of control)” value (“Uptake … (% of control)” for short) is 38.92 % of control.

As a reminder, the Ki is a dissociation constant, usually derived from enzyme kinetics or from competition with a known ligand. Turning to `O=C(OC[C@H]1O[C@@H](OC(=O)c2cc(O)c(O)c(OC(=O)c3cc(O)c(O)c(O)c3)c2)[C@H](OC(=O)c2cc(O)c(O)c(OC(=O)c3cc(O)c(O)c(O)c3)c2)[C@@H](OC(=O)c2cc(O)c(O)c(OC(=O)c3cc(O)c(O)c(O)c3)c2)[C@@H]1OC(=O)c1cc(O)c(O)c(OC(=O)c2cc(O)c(O)c(O)c2)c1)c1cc(O)c(O)c(OC(=O)c2cc(O)c(O)c(O)c2)c1` [Tannic acid], in test [1] (setting [4]), the Ki is 0.35 µM. Moreover, in test [1], the “Uptake … (% of control)” value was 8.31 % of control.

For `COP(=S)(OC)Oc1ccc(Sc2ccc(OP(=S)(OC)OC)cc2)cc1` [Temefos], the Ki in test [1] (setting [4]) came out at 4.16 µM. For the same molecule, in test [1], the “Uptake … (% of control)” value was 38.51 % of control. `COc1cc2c3cc1Oc1cc(ccc1O)C[C@@H]1c4c(cc(OC)c(O)c4Oc4ccc(cc4)C[C@@H]3N(C)CC2)CC[N+]1(C)C.Cl.O.O.O.O.O.[Cl-]` [Tubocurarine chloride]: in test [1], the “Uptake … (% of control)” value is given as 49.76 % of control.

Take `Nc1nc(=O)c2[nH]c(=O)cnc2[nH]1` [Xanthopterin]: in test [1], the “Uptake … (% of control)” value was 49.67 % of control. `CCOc1nc2cccc(C(=O)O)c2n1Cc1ccc(-c2ccccc2-c2nnn[nH]2)cc1` [candesartan]: the Ki in test [1] (values given with ± spread) stood at 50.9 ± 9.9 µM. Turning to `CC[C@H]1OC(=O)[C@H](C)[C@@H](O[C@H]2C[C@@](C)(OC)[C@@H](O)[C@H](C)O2)[C@H](C)[C@@H](O[C@@H]2O[C@H](C)C[C@H](N(C)C)[C@H]2O)[C@](C)(O)C[C@@H](C)C(=O)[C@H](C)[C@@H](O)[C@]1(C)O` [erythromycin], the “concentration-dependent inhibition of tauro-nor-THCA-24-DBD uptake” value (from here on “concentration-dependent inhibition”) in test [1] was “Only candesartan showed inhibition”. As to `O=C1c2c(O)cc(O)cc2OC(c2ccc(O)cc2)C1c1c(O)cc(O)c2c(=O)cc(-c3ccc(O)c(O)c3)oc12` (stereo not drawn) [fukugetin], in test [1], the “concentration-dependent inhibition” value is on record as “showed concentration-dependent inhibition”. On the same count and under the same terms, to `O=c1c(O)c(-c2ccc(O)c(O)c2)oc2cc(O)cc(O)c12` [quercetin] belongs “did not show concentration-dependent inhibition”.

For the molecule `Cc1cc2c(C(=O)NC[C@H](C)c3ccccc3)c(O)c(O)cc2c(O)c1-c1c(C)cc2c(C(=O)NC[C@H](C)c3ccccc3)c(O)c(O)cc2c1O` [sabutoclax], the “concentration-dependent inhibition” value in test [1] is “showed concentration-dependent inhibition”. Further, the Ki in test [1] (values given with ± spread) turned out to be 0.522 ± 0.077 µM. Consider `O=C(O)c1cc(O)c2c(c1)[C@@H]([C@H]1c3cc(C(=O)O)cc(O)c3C(=O)c3c(O[C@@H]4O[C@H](CO)[C@@H](O)[C@H](O)[C@H]4O)cccc31)c1cccc(O[C@@H]3O[C@H](CO)[C@@H](O)[C@H](O)[C@H]3O)c1C2=O` [sennoside B], for which the “concentration-dependent inhibition” value in test [1] is reported as “did not show concentration-dependent inhibition”. In the case of Dehydroavocatin-1 -acetate, the inhibition constant Ki in test [1] (setting [4]) turned out to be 118 µM. Further, the “Uptake … (% of control)” value in test [1] was 44.14 % of control. For Echinocystic acid, the “Uptake … (% of control)” value in test [1] was 24.64 % of control. Gramicidin had an inhibition constant Ki in test [2] (3 µM tauro-nor-THCA-24-DBD, Cheng-Prusoff from IC50, screening hits) of 7.59 µM. Further, the “Uptake … (% of control)” value in test [2] (compound at equimolar concentration with 3 µM tauro-nor-THCA-24-DBD, triplicate) is given as 37.54 % of control. Consider Oligomycin (A shown), for which, in test [1] (setting [4]), the Ki stood at 0.26 µM. In addition, the “Uptake … (% of control)” value in test [1] was 33.87 % of control.

The Km is the concentration of substrate that gives half-maximal velocity. On to tauro-nor-THCA-24-DBD, for which, in test [3] (setting [5]), the Km was found to be 9.2 ± 1.8 µM and the Vmax worked out at 322.1 ± 18.3 pmol·mg protein^-1·min^-1. Further, in test [3] (corresponds to Vmax and Km), the uptake clearance was 35.0 µL·mg protein^-1· min^-1.
